Test results taken from US20010056084A1, “MGluR5 antagonists for the treatment of pain and anxiety” (priority 1998, published 2001).

Legend:
naive rat hind paw = naive rat hind paw test of mechanical hyperalgesia (Randall and Selitto), glutamate receptor agonists; format: in vivo
rat = conditions: intrathecally administered; cited from earlier work
[1] = system: DHPG-induced hyperalgesia in the rat hind paw; assay: DHPG-induced hyperalgesia in the rat hind paw (Randall and Selitto), co-administration; format: in vivo; conditions: co-administration with DHPG to the rat hind paw

Structure (SMILES)	rank order of potency as hyperalgesic agents (naive rat hind paw)	spontaneous nociceptive responses (rat)	inhibition of DHPG-induced hyperalgesia [1]
Cc1o[nH]c(=O)c1CC(N)C(=O)O (centres unmarked) [AMPA]	AMPA>(±)-2-aminobicyclo[3.1.0]hexane-2,6-dicarboxylic acid (LY 314582)		
NC(C(=O)O)c1cc(O)cc(O)c1 (centres unmarked) [DHPG, 3,5-dihydroxyphenyiglycine]	DHPG>NMDA	induced an increase in spontaneous nocicepfive responses	
N[C@@H](CCC(=O)O)C(=O)O [glutamate]	glutamate ˜2-chloro-3-hydroxyphenylglycine (CHPG)		
NC1(C(=O)O)CCC2C(C(=O)O)C21 (racemic) [LY 314582, (±)-2-aminobicyclo[3.1.0]hexane-2,6-dicarboxylic acid]	(LY 314582)>L-4-phosphono-2-amino-butiric acid (L-AP4)		
CN[C@H](CC(=O)O)C(=O)O [NMDA]	NMDA>AMPA		
N[C@H](C(=O)O)c1ccc(C(=O)O)cc1 [(S)-4C-PG, (S)-4-carboxyphenylglycine]			limited effect
N[C@@H](CCP(=O)(O)O)C(=O)O [L-AP4, L-4-phosphono-2-amino-butiric acid]	>L-4-phosphono-2-amino-butiric acid (L-AP4)		
